Where “and” joins values, the source holds several entries; their conditions need not be identical. Identical values can stand only once. Like-named read-outs stand apart in the source and are kept apart here.
How the values were obtained:
Format in all cases: biochemical
[1] = Fluorescent AGEs formation in a BSA-fructose/glucose system; conditions: for inhibition of fluorescent AGEs formation (BSA-抗糖化), single replicate: individual replicate; for inhibition of fluorescent AGEs formation (BSA-抗糖化), 平均 (mean): mean of 3 replicates; for IC50: mean ± SD, n = 3, read-out: BSA-glycation IC50
In short: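 Fluorescent AGE inhibition was measured in triplicate, correcting sample and control fluorescence for BSA-free blanks. Glycation used BSA incubated with D-fructose and D-glucose, with samples dissolved in DMSO:water (1:4).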

[2] = FRAP total antioxidant capacity;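 also: colourimetric FRAP kit assay read as absorbance in 96-well plates, values as mM FeSO4 via standard curve, EC1 being sample concentration matching 1.0 mmol/L FeSO4, Trolox positive control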
DPPH· scavenging = conditions: mean ± SD, n = 3
COX-2 = molecular target: T1, COX-2 (Homo sapiens, UniProt P35354); assay: Anti-COX-2 assay (COX-2 Inhibitor Screening Kit)
T1 construct: purchased Beyotime S0168
T1 sequence (P35354 18-604): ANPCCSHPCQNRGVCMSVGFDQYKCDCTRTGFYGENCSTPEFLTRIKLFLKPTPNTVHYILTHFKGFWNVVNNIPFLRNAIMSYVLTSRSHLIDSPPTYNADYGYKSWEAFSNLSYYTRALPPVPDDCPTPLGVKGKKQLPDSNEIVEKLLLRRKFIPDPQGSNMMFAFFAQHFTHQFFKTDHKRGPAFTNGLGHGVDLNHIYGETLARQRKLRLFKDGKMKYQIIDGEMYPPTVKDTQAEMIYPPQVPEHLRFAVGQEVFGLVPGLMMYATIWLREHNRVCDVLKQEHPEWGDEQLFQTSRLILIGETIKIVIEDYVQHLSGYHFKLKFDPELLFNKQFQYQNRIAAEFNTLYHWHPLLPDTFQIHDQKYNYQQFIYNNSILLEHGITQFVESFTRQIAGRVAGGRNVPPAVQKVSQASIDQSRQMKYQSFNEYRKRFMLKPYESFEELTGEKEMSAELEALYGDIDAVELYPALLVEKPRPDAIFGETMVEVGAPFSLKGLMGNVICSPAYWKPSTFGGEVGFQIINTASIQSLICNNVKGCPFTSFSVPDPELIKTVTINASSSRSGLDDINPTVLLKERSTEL

[3] = ABTS·+ decolourisation capacity; conditions: mean ± SD, n = 3
In short: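 IC50 values were derived graphically from dose-inhibition curves, with % inhibition calculated versus a buffer-only (0.2 M phosphate, pH 7.4) control. Each sample (200 μl) reacted for 10 min with 100 μl ABTS·+ reagent pre-set to A729 0.8 ± 0.05, then absorbance at 729 nm was measured in triplicate.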

[4] = lower part of sheet (compound series)

Molecule: COc1cc(-c2oc3cc(O)cc(O)c3c(=O)c2OC2OC(CO)C(O)C(O)C2O)ccc1O (stereo not drawn) [compound 32, Isorhamnetin-3-O-glucoside]
- inhibition of fluorescent AGEs formation (BSA-抗糖化), single replicate ([1]; 15.625 µM, listed as T14, 15.625 µM): 6.47% and 9.81% and 6.23%
- inhibition of fluorescent AGEs formation (BSA-抗糖化), 平均 (mean) ([1]; 15.625 µM): 7.50%
- inhibition of fluorescent AGEs formation (BSA-抗糖化), single replicate ([1]; 31.25 µM, listed as T14, 31.25 µM): 13.37% and 12.51% and 13.56%
- inhibition of fluorescent AGEs formation (BSA-抗糖化), 平均 (mean) ([1]; 31.25 µM): 13.15%
- inhibition of fluorescent AGEs formation (BSA-抗糖化), single replicate ([1]; 62.5 µM, listed as T14, 62.5 µM): 22.22% and 24.18% and 24.11%
- inhibition of fluorescent AGEs formation (BSA-抗糖化), 平均 (mean) ([1]; 62.5 µM): 23.51%
- inhibition of fluorescent AGEs formation (BSA-抗糖化), single replicate ([1]; 125 µM, listed as T14, 125 µM): 35.72% and 35.84% and 36.17%
- inhibition of fluorescent AGEs formation (BSA-抗糖化), 平均 (mean) ([1]; 125 µM): 35.91%
- inhibition of fluorescent AGEs formation (BSA-抗糖化), single replicate ([1]; 250 µM, listed as T14, 250 µM): 54.28% and 53.83% and 54.39%
- inhibition of fluorescent AGEs formation (BSA-抗糖化), 平均 (mean) ([1]; 250 µM): 54.17%
- inhibition of fluorescent AGEs formation (BSA-抗糖化), single replicate ([1]; 500 µM, listed as T14, 500 µM): 70.40% and 70.98% and 71.44%
- inhibition of fluorescent AGEs formation (BSA-抗糖化), 平均 (mean) ([1]; 500 µM): 70.94%
- inhibition of fluorescent AGEs formation (BSA-抗糖化), single replicate ([1]; 1000 µM, listed as T14, 1000 µM): 83.59% and 83.42% and 83.56%
- inhibition of fluorescent AGEs formation (BSA-抗糖化), 平均 (mean) ([1]; 1000 µM): 83.53%
- inhibition of fluorescent AGEs formation (BSA-抗糖化), single replicate ([1]; 2000 µM, listed as T14, 2000 µM): 91.04% and 91.39% and 91.09%
- inhibition of fluorescent AGEs formation (BSA-抗糖化), 平均 (mean) ([1]; 2000 µM): 91.17%
- inhibition of fluorescent AGEs formation (BSA-抗糖化), single replicate ([1]; 4000 µM (series head 'T9 4000µM', 2-fold dilutions), listed as T14): 95.57% and 95.55% and 95.41%
- inhibition of fluorescent AGEs formation (BSA-抗糖化), 平均 (mean) ([1]; 4000 µM): 95.51%
- IC50 [1]: 209 ± 3.1 µM
- FRAP EC1 [2, 4]: 2757.3 ± 103.8 µM
- FRAP EC1 ([2]; mean ± SD, n = 3): 2,757.3 ± 103.8 μM
- IC50 (DPPH· scavenging): 2370 µM
- inhibition at 31.25 µM (COX-2; 31.25 μM, single replicates): 5.99%
- COX-2 inhibition (COX-2; 31.25 μM, single replicates, listed as T14, 31.25 µM): 4.35%
- COX-2 inhibition (COX-2; 62.5 μM, single replicates, listed as T14, 62.5 µM): -8.14% and 8.77% and -5.55%
- COX-2 inhibition (COX-2; 125 μM, single replicates, listed as T14, 125 µM): 16.41% and 9.67% and 1.80%
- COX-2 inhibition (COX-2; 250 μM, single replicates, listed as T14, 250 µM): 18.89% and 38.58% and 20.11%
- inhibition at 500 µM (COX-2; 500 μM, single replicates): 53.6%
- COX-2 inhibition (COX-2; 500 μM, single replicates, listed as T14, 500 µM): 61.95% and 42.08%
- inhibition at 1000 µM (COX-2; 1000 μM, single replicates): 77.5%
- COX-2 inhibition (COX-2; 1000 μM, single replicates, listed as T14, 1000 µM): 79.82% and 70.09%
- inhibition at 2000 µM (COX-2; 2000 μM (2mM), single replicates): 76.1%
- COX-2 inhibition (COX-2; 2000 μM (2mM), single replicates, listed as T14): 78.14% and 68.80%
- IC50 (COX-2; mean ± SD, n = 3, nd, not detected, read-out: COX-2 IC50): 535 ± 150 µM
- IC50 (COX-2; supplement sheet COX, read-out: COX-2 IC50, single replicate): 515 µM and 396 µM and 694 µM
- IC50 [3]: 44.7 ± 1.52 µM

Molecule: Kaempferol-3-O-rutinoside [compound 28]
- inhibition of fluorescent AGEs formation (BSA-抗糖化), single replicate ([1]; 15.625 µM, listed as T12, 15.625 µM): -0.31% and 7.28% and -2.72%
- inhibition of fluorescent AGEs formation (BSA-抗糖化), 平均 (mean) ([1]; 15.625 µM): 1.41%
- inhibition of fluorescent AGEs formation (BSA-抗糖化), single replicate ([1]; 31.25 µM, listed as T12, 31.25 µM): 6.95% and 5.50% and 2.44%
- inhibition of fluorescent AGEs formation (BSA-抗糖化), 平均 (mean) ([1]; 31.25 µM): 4.96%
- inhibition of fluorescent AGEs formation (BSA-抗糖化), single replicate ([1]; 62.5 µM, listed as T12, 62.5 µM): 13.47% and 13.89% and 14.50%
- inhibition of fluorescent AGEs formation (BSA-抗糖化), 平均 (mean) ([1]; 62.5 µM): 13.95%
- inhibition of fluorescent AGEs formation (BSA-抗糖化), single replicate ([1]; 125 µM, listed as T12, 125 µM): 22.45% and 28.29% and 22.60%
- inhibition of fluorescent AGEs formation (BSA-抗糖化), 平均 (mean) ([1]; 125 µM): 24.45%
- inhibition of fluorescent AGEs formation (BSA-抗糖化), single replicate ([1]; 250 µM, listed as T12, 250 µM): 38.13% and 38.77% and 37.66%
- inhibition of fluorescent AGEs formation (BSA-抗糖化), 平均 (mean) ([1]; 250 µM): 38.19%
- inhibition of fluorescent AGEs formation (BSA-抗糖化), single replicate ([1]; 500 µM, listed as T12, 500 µM): 58.09% and 57.21% and 56.73%
- inhibition of fluorescent AGEs formation (BSA-抗糖化), 平均 (mean) ([1]; 500 µM): 57.34%
- inhibition of fluorescent AGEs formation (BSA-抗糖化), single replicate ([1]; 1000 µM, listed as T12, 1000 µM): 74.99% and 76.95% and 73.93%
- inhibition of fluorescent AGEs formation (BSA-抗糖化), 平均 (mean) ([1]; 1000 µM): 75.29%
- inhibition of fluorescent AGEs formation (BSA-抗糖化), single replicate ([1]; 2000 µM, listed as T12, 2000 µM): 85.90% and 86.14% and 85.80%
- inhibition of fluorescent AGEs formation (BSA-抗糖化), 平均 (mean) ([1]; 2000 µM): 85.95%
- inhibition of fluorescent AGEs formation (BSA-抗糖化), single replicate ([1]; 4000 µM (series head 'T9 4000µM', 2-fold dilutions), listed as T12): 92.80% and 92.79% and 92.84%
- inhibition of fluorescent AGEs formation (BSA-抗糖化), 平均 (mean) ([1]; 4000 µM): 92.81%
- IC50 [1]: 374 ± 18.1 µM
- FRAP EC1 [2, 4]: >5000 µM
- IC50 (DPPH· scavenging): > 5000 µM
- COX-2 inhibition (in words) (COX-2): no inhibitory effects
- COX-2 inhibition (COX-2; 3.125 μM, single replicates, listed as T12, 3.125 µM): 24.76% and 3.80%
- COX-2 inhibition (COX-2; 6.25 μM, single replicates, listed as T12, 6.25 µM): 9.88% and 6.40% and 22.14%
- COX-2 inhibition (COX-2; 12.5 μM, single replicates, listed as T12, 12.5 µM): -1.05% and 3.59% and 13.88%
- COX-2 inhibition (COX-2; 25 μM, single replicates, listed as T12, 25 µM): -5.04% and -8.91% and 26.95%
- COX-2 inhibition (COX-2; 50 μM, single replicates, listed as T12, 50 µM): -2.18% and -5.56% and 1.52%
- COX-2 inhibition (COX-2; 100 μM, single replicates, listed as T12, 100 µM): 7.51% and -46.40% and 2.25%
- COX-2 inhibition (COX-2; 200 μM, single replicates, listed as T12, 200 µM): -9.13% and -25.75% and 1.42%
- IC50 [3]: 35.01 ± 0.22 µM

Reference: paper PMC10064984, “Anti-cyclooxygenase, anti-glycation, and anti-skin aging effect of Dendrobium officinale flowers’ aqueous extract and its phytochemical validation in aging” (Frontiers in Immunology, 2023)
